The source of these data is ChEMBL document CHEMBL1143571 (J Med Chem, 2005).

Each structure is given as a SMILES string. Some results are limits rather than exact numbers.

T1 sequence (P35462 whole entry): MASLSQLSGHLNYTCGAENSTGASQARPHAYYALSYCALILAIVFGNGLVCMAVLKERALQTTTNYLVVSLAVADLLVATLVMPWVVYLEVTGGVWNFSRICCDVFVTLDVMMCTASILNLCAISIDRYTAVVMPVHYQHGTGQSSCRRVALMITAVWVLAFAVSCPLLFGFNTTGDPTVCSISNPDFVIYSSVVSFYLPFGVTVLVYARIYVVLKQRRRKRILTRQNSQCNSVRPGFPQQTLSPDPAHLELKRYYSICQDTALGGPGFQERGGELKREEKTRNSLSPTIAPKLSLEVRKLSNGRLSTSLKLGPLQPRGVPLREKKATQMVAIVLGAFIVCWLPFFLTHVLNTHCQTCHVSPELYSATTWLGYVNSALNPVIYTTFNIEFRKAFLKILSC
Sequence of D(2) dopamine receptor (Rattus norvegicus) (P61169 whole entry): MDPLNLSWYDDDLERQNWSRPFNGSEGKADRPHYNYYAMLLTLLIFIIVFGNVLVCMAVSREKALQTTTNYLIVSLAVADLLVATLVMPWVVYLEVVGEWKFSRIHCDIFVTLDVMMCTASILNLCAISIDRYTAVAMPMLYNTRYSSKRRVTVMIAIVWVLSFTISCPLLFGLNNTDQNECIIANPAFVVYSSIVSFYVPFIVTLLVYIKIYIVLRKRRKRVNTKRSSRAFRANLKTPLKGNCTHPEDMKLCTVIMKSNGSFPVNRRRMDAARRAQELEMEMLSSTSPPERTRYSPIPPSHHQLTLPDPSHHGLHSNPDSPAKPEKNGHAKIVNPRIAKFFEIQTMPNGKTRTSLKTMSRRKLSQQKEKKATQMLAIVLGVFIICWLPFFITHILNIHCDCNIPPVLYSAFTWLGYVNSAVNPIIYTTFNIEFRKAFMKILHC

The first assay has as its target T1, D(3) dopamine receptor (Homo sapiens, UniProt P35462).
Description: Effective concentration to stimulate human Dopamine receptor D3 mediated [3H]-thymidine incorporation into growing cells using mitogenesis assay
Turning to `CCCN(CCC)[C@H]1CCn2c(C=O)ccc2C1`, a half-maximal response (EC50) required 1.1 nM. That is a single-digit nanomolar value.

Take `CCCN(CCC)[C@H]1CCn2c(C#N)ccc2C1`: the EC50 was determined as 2.4 nM. Compared with the last compound, the EC50 is about 2.2-fold higher.

A further assay has as its target T2, D(4) dopamine receptor (Homo sapiens, UniProt P21917).
T2 sequence (P21917 whole entry): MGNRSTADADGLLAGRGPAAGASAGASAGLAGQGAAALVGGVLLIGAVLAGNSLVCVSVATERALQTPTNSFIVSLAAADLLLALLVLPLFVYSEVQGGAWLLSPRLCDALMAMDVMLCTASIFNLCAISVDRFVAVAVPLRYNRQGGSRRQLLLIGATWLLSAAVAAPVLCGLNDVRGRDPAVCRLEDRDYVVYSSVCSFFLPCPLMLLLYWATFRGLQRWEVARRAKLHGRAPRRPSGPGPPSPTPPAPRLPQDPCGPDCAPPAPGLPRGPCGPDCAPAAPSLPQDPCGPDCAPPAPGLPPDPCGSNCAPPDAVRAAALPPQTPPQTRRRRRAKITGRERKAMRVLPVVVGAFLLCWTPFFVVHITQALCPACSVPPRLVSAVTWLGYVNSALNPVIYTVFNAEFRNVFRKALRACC
Type of assay: cell-based, CHO.
Description: High inhibition constant against [3H]spiperone binding to human Dopamine receptor D4.4 expressed in CHO cells
With `CCCN(CCC)[C@H]1CCn2c(C=O)ccc2C1`, the affinity corresponds to a Ki of 32 nM.

For the compound `CCCN(CCC)[C@H]1CCn2c(C#N)ccc2C1`, the Ki came out at 40 nM.

In the next assay the target is T3, D(2) dopamine receptor (Rattus norvegicus, UniProt P61169). Put plainly: Effective concentration to stimulate rat Dopamine receptor D2L mediated [3H]thymidine incorporation into growing cells using mitogenesis assay.
T3 sequence (P61169 whole entry): as the sequence (P61169 whole entry) above
For `CCCN(CCC)[C@H]1CCn2c(C=O)ccc2C1`, it took 11 nM to reach a half-maximal effect (EC50).

With `CCCN(CCC)[C@H]1CCn2c(C#N)ccc2C1`, the response was half-maximal at 42 nM (EC50).

The target of another assay is T4, D(2) dopamine receptor (Homo sapiens, UniProt P14416). It counts as cell-based, CHO.
T4 sequence (P14416 whole entry): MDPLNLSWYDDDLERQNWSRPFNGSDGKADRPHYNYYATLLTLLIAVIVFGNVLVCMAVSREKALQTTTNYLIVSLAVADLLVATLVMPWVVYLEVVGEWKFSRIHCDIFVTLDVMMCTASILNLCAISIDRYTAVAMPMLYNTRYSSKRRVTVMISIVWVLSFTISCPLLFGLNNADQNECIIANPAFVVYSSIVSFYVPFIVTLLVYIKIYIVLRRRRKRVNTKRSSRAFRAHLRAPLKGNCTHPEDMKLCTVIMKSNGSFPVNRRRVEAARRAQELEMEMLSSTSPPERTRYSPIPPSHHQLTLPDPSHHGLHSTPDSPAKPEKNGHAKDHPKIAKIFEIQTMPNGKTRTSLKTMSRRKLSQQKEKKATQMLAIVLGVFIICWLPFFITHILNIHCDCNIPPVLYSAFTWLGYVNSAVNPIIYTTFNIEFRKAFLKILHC
`CCCN(CCC)[C@H]1CCn2c(C=O)ccc2C1` came in with a Ki of 6900 nM.

For `CCCN(CCC)[C@H]1CCn2c(C#N)ccc2C1`, the Ki was 6500 nM. The Ki values of the last two compounds are within 1.5-fold of each other.

In another assay the target is T1, D(3) dopamine receptor. It counts as cell-based, CHO. The source holds these as a separate data set.
Description: Inhibition constant against [3H]-spiperone binding to human Dopamine receptor D3 expressed in CHO cells
The compound `CCCN(CCC)[C@@H]1CCn2ccc(CO)c2C1` had a Ki of 324 nM.

Turning to `CCCN(CCC)[C@H]1CCn2c(/C=N/O)ccc2C1`, the Ki was 30.9 nM.

In turn, `CCCN(CCC)[C@H]1CCn2ccc(C)c2C1` showed a Ki of 676 nM.

As to `Oc1ccc2c(c1O)-c1cccc3c1[C@@H](C2)NCC3`, the Ki is 58.9 nM.

`CCCN(CCC)[C@@H]1CCn2cccc2C1`: affinity was put at a Ki of 1660 nM. Against the preceding compound, the Ki is about 28-fold higher.

The compound `CCCN(CCC)[C@@H]1CCn2c(ccc2C(=O)OCC)C1` showed a Ki of 324 nM.

The compound `CCCN(CCC)[C@@H]1CCn2c(ccc2C(=O)c2ccccc2)C1` gave a Ki of 1550 nM.

As for `CCCN(CCC)[C@@H]1CCn2ccc(C)c2C1`, the affinity corresponds to a Ki of 1450 nM.

Turning to `CCCN(CCC)[C@H]1CCn2c(ccc2C(=O)C(Cl)(Cl)Cl)C1`, the Ki is 263 nM.

With `CCCN(CCC)[C@H]1CCn2c(ccc2C(=O)OCC)C1`, the Ki was 4370 nM.

Regarding `CCCN(CCC)[C@H]1CCn2c(C=O)ccc2C1`, affinity was put at a Ki of 5.25 nM. This Ki is about 830-fold lower than that of the compound before.

As for `CCCN(CCC)[C@@H]1CCc2c(ccn2C=O)C1`, the Ki is 43.7 nM.

`CCCN(CCC)[C@H]1CCn2c(ccc2CN(C)C)C1`: the Ki was 3630 nM.

`CCCN(CCC)[C@@H]1CCn2c(ccc2CN(C)C)C1`: the affinity corresponds to a Ki of 12000 nM.

On to `CCCN(CCC)[C@@H]1CCn2c(C)ccc2C1`, for which the affinity, expressed as Ki, was 617 nM. Against the preceding compound, the Ki is about 19-fold lower.

Compound `CCCN(CCC)[C@@H]1CCn2c(CO)ccc2C1` showed an inhibition constant (Ki) of 724 nM. The Ki values of the last two compounds are within 1.5-fold of each other.

`CCCN(CCC)[C@@H]1CCn2cc(C)cc2C1`: the affinity corresponds to a Ki of 912 nM.

With `CCCN(CCC)[C@@H]1CCn2c(C=C(C#N)C#N)ccc2C1`, the affinity, expressed as Ki, was 6030 nM.

`CCCN(CCC)[C@H]1CCn2c(C#N)ccc2C1` had a Ki of 7.24 nM. Against the preceding compound, the Ki is about 830-fold lower.

In turn, `CCCN(CCC)[C@H]1CCn2c(ccc2C(=O)C(F)(F)F)C1` gave a Ki of 22.9 nM.

In the case of `CCCN(CCC)[C@@H]1CCn2c(ccc2-c2ccccc2)C1`, the affinity, expressed as Ki, was 2400 nM.

For the compound `CCCN(CCC)[C@H]1CCn2c(C=C(C#N)C#N)ccc2C1`, the Ki is 60.3 nM. This Ki lies about 40-fold lower than the previous one.

Compound `CCCN(CCC)[C@@H]1CCn2c(/C=N\O)ccc2C1` gave a Ki of 4790 nM.

Compound `CCCN(CCC)[C@@H]1CCn2c(C#N)ccc2C1` showed a Ki of 2820 nM.

For `CCCN(CCC)[C@H]1CCn2cccc2C1`, the Ki is 575 nM.

`CCCN(CCC)[C@H]1CCn2c(ccc2-c2ccccc2)C1` gave a Ki of 7940 nM.

`CCCN(CCC)[C@H]1CCn2c(C)ccc2C1` had an inhibitory constant (Ki) of 417 nM.

In the case of `CCCN(CCC)[C@@H]1CCn2c(/C=N/O)ccc2C1`, the Ki was 2090 nM.

`CCCN(CCC)[C@H]1CCn2c(ccc2C(=O)c2ccccc2)C1` showed a Ki of 1910 nM. The Ki values of the last two compounds are within 1.5-fold of each other.

The compound `CCCN(CCC)[C@H]1CCn2cc(C)cc2C1` showed a Ki of 794 nM.

`CCCN(CCC)[C@H]1CCc2c(ccn2C=O)C1` gave a Ki of 38.9 nM.

In the case of `CCCN(CCC)[C@@H]1CCn2c(ccc2C(=O)C(F)(F)F)C1`, the affinity, expressed as Ki, was 2510 nM.

`CCCN(CCC)[C@H]1CCn2c(/C=N\O)ccc2C1` showed a Ki of 49 nM. This Ki lies about 51-fold lower than the previous one.

`CCCN(CCC)[C@H]1CCn2c(ccc2C(C)=O)C1` had a Ki of 45.7 nM.

The compound `CCCN(CCC)[C@@H]1CCn2c(ccc2C(C)=O)C1` showed a Ki of 2820 nM. Compared with the last compound, the Ki is about 62-fold higher.

In turn, `CCCN(CCC)[C@@H]1CCn2ccc(C=O)c2C1` gave a Ki of 501 nM.

As to `CCCN(CCC)[C@@H]1CCn2c(ccc2C(=O)C(Cl)(Cl)Cl)C1`, the inhibition constant (Ki) is 87.1 nM.

A further assay addresses D(2) dopamine receptor (Rattus norvegicus) (UniProt P61169). Put plainly: Intrinsic activity to stimulate rat Dopamine receptor D2S mediated [3H]-thymidine incorporation into growing cells using mitogenesis assay.
As for `CCCN(CCC)[C@H]1CCn2c(C=O)ccc2C1`, the Intrinsic activity was 101%.

For `CCCN[C@H]1CCc2nc(N)sc2C1` [PRAMIPEXOLE], the Intrinsic activity came to 103%.

On to `CCCN(CCC)[C@H]1CCn2c(C#N)ccc2C1`, for which the Intrinsic activity came to 95%.

Another assay addresses T4, D(2) dopamine receptor. It counts as cell-based, CHO. The source holds these as a separate data set.
Description: High inhibition constant against [3H]spiperone binding to human Dopamine receptor D2L expressed in CHO cells
The compound `CCCN(CCC)[C@H]1CCn2c(C=O)ccc2C1` returned a Ki of 52 nM.

In the case of `CCCN(CCC)[C@H]1CCn2c(C#N)ccc2C1`, the Ki came to 190 nM.

The next assay addresses T2, D(4) dopamine receptor. This is another data set of the same source.
Description: Effective concentration to stimulate human Dopamine receptor D4.2 mediated [3H]thymidine incorporation into growing cells using mitogenesis assay
In the case of `CCCN(CCC)[C@H]1CCn2c(C=O)ccc2C1`, the EC50 came out at 4200 nM. In other words, the single-digit micromolar range.

Another assay has as its target T4, D(2) dopamine receptor. It counts as cell-based, CHO. This is another data set of the same source.
In the case of `CCCN(CCC)[C@H]1CCn2c(C=O)ccc2C1`, the affinity, expressed as Ki, was 41 nM.

The compound `CCCN(CCC)[C@H]1CCn2c(C#N)ccc2C1` registered a Ki of 130 nM. Against the preceding compound, the Ki is about 3.2-fold higher.

For another assay, the target named is T3, D(2) dopamine receptor. Put plainly: Effective concentration to stimulate rat Dopamine receptor D2S mediated [3H]thymidine incorporation into growing cells using mitogenesis assay.
On to `CCCN(CCC)[C@H]1CCn2c(C=O)ccc2C1`, for which the EC50 turned out to be 79 nM.

Regarding `CCCN(CCC)[C@H]1CCn2c(C#N)ccc2C1`, the EC50 came out at 130 nM.

Another assay addresses D(2) dopamine receptor (Rattus norvegicus) (UniProt P61169). Put plainly: Intrinsic activity to sitmulate rat Dopamine receptor D2L mediated [3H]thymidine incorporation into growing cells using mitogenesis assay.
For `CCCN(CCC)[C@H]1CCn2c(C=O)ccc2C1`, the Intrinsic activity worked out at 98%.

In the case of `CCCN[C@H]1CCc2nc(N)sc2C1` [PRAMIPEXOLE], the Intrinsic activity was found to be 85%.

As for `CCCN(CCC)[C@H]1CCn2c(C#N)ccc2C1`, the Intrinsic activity was found to be 99%.

The next assay deals with T2, D(4) dopamine receptor. It counts as cell-based, CHO. This is another data set of the same source.
`CCCN(CCC)[C@H]1CCn2c(C=O)ccc2C1`: the Ki worked out at 2500 nM. That is a single-digit micromolar value.

The compound `CCCN(CCC)[C@H]1CCn2c(C#N)ccc2C1` yielded a Ki of 9700 nM.

For the next assay, the target named is T1, D(3) dopamine receptor. The source holds these as a separate data set.
Compound `CCCN(CCC)[C@H]1CCn2c(C=O)ccc2C1` registered a Ki of 5.3 nM. In other words, the single-digit nanomolar range.

Take `CCCN(CCC)[C@H]1CCn2c(C#N)ccc2C1`: the Ki came to 7.2 nM.

The next assay deals with T1, D(3) dopamine receptor. The source holds these as a separate data set.
Take `CCCN(CCC)[C@H]1CCn2c(C#N)ccc2C1`: the Ki is 140 nM.

A further assay deals with D(1A) dopamine receptor (Bos taurus, UniProt Q95136). The assay is described as follows: Inhibition constant against [3H]SCH-23390 binding to Dopamine receptor D1 in bovine striatal membranes. It counts as cell membranes, Striatum, Membrane.
Sequence of D(1A) dopamine receptor (Q95136 whole entry): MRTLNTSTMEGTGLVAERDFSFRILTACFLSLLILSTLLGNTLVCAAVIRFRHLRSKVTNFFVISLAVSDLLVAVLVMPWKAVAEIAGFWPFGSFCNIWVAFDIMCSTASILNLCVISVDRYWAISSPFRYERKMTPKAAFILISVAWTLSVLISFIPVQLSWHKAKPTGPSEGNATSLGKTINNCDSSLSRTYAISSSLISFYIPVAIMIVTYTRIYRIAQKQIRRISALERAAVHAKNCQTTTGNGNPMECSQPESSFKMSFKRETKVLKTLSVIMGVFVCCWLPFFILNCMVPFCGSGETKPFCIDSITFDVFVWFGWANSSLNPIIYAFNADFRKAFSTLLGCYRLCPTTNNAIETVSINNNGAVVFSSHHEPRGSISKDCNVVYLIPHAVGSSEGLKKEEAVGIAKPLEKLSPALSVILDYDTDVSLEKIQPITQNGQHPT
As for `CCCN(CCC)[C@H]1CCn2c(C=O)ccc2C1`, the Ki is more than 20000 nM.

Compound `CCCN[C@H]1CCc2nc(N)sc2C1` [PRAMIPEXOLE] gave a Ki of more than 20000 nM.

In turn, `CCCN(CCC)[C@H]1CCn2c(C#N)ccc2C1` yielded a Ki of more than 20000 nM.

The target in a further assay is T4, D(2) dopamine receptor. It counts as cell-based, CHO. The source holds these as a separate data set.
The compound `CCCN(CCC)[C@H]1CCn2c(C=O)ccc2C1` had a Ki of 3000 nM.

On to `CCCN(CCC)[C@H]1CCn2c(C#N)ccc2C1`, for which the inhibition constant (Ki) was 5100 nM. This Ki lies about 1.7-fold higher than the previous one.
